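Grown in 96-well plates, cells were treated for 48 hours with each compound at five concentrations. Insufficient inhibition: endpoint recorded as highest concentration tested. At the GI50, growth is halved. TGI: total growth inhibition.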
Assays:
Experiment in all cases: NCI tumour cell line growth inhibition, 48 h
[1] = tested on: 786-0 renal
[2] = tested on: EKVX NSCLC
[3] = tested on: HCC-2998 colon
[4] = tested on: IGROV1 ovarian
[5] = tested on: MALME-3M melanoma
[6] = tested on: NCI/ADR-RES ovarian
[7] = tested on: SF-268 CNS
[8] = tested on: SK-OV-3 ovarian
[9] = tested on: SN12C renal
[10] = tested on: SNB-19 CNS

Structure (SMILES) | GI50 [1] | TGI [1] | GI50 [2] | TGI [2] | GI50 [3] | TGI [3] | GI50 [4] | TGI [4] | GI50 [5] | TGI [5] | GI50 [6] | TGI [6] | GI50 [7] | TGI [7] | GI50 [8] | TGI [8] | GI50 [9] | TGI [9] | GI50 [10] | TGI [10]
CCCc1cc2cc(-n3nc(C)c4c3CC(C)(C)CC4=O)cc(NC3CCC(O)CC3)c2c(=O)[nH]1 (stereo not drawn) | 0.874 µM | > 100 µM | 1.53 µM | > 100 µM | 0.144 µM | > 100 µM | 0.134 µM | > 100 µM | 0.142 µM | 3.34 µM | 0.986 µM | > 100 µM | 1.8 µM | > 100 µM | 0.0892 µM | > 46.6 µM | 0.0683 µM | > 100 µM | 0.523 µM | > 100 µM
COc1ccc(N(CC(=O)NCCC[Te]c2ccccc2)C(=O)CCSC2=C(C)C(=O)c3ccccc3C2=O)cc1 | 2.32 µM | 4.91 µM | 0.326 µM | 2.98 µM | 1.67 µM | 4.44 µM | 0.888 µM | 2.35 µM | 2.25 µM | 4.51 µM | 1.46 µM | 6.16 µM | 1.11 µM | 3.99 µM | 2.14 µM | 4.67 µM | 0.84 µM | 3.77 µM | 2.91 µM | 12.1 µM
Cc1cccc2c(N=Nc3ccc(S(N)(=O)=O)cc3)c(O)[nH]c12 | > 25 µM | > 25 µM | > 25 µM | > 25 µM | > 25 µM | > 25 µM | > 25 µM | > 25 µM | > 25 µM | > 25 µM | > 25 µM | > 25 µM | > 25 µM | > 25 µM | > 25 µM | > 25 µM | > 25 µM | > 25 µM | > 25 µM | > 25 µM
Cc1c2c(nn1C(=O)c1nn(-c3ccc(Cl)cc3)cc1O)-c1ccccc1CC2 | 0.319 µM | > 64.1 µM | 0.0707 µM | > 100 µM | 0.377 µM | > 100 µM | 0.0429 µM | > 100 µM | 0.328 µM | > 74 µM | 0.0495 µM | > 100 µM | 0.0469 µM | > 100 µM | 0.202 µM | > 100 µM | 0.0403 µM | > 100 µM | 0.0446 µM | > 100 µM
N#CC(=S)Nc1ccc(Cl)c(Cl)c1 | – | > 66.9 µM | – | 61.1 µM | – | 34.8 µM | – | 53.8 µM | – | > 54.7 µM | – | 65.4 µM | – | > 94.5 µM | – | 61.6 µM | – | > 68.5 µM | – | > 100 µM
O=[N+]([O-])c1cc(CCl)ccc1CCl | – | 3.34 µM | – | 3.38 µM | – | 4.01 µM | – | 2.92 µM | – | 3.51 µM | – | 8.84 µM | – | 4.21 µM | – | 26 µM | – | 2.97 µM | – | 3.8 µM
Cc1ccc(S(=O)(=O)/N=c2\ssc(Nc3ccccc3)c2Cl)cc1 | 27.7 µM | > 50 µM | 6.03 µM | 16.9 µM | – | – | 30.9 µM | > 50 µM | – | – | 10.1 µM | 27.6 µM | 6.83 µM | 21.8 µM | 15.3 µM | > 50 µM | 8.99 µM | 25.6 µM | 12.8 µM | > 50 µM
COc1ccc(-c2nn(-c3cccc(NC(=O)Nc4ccc(Cl)c(C(F)(F)F)c4)c3)cc2-c2ccncc2)cc1Cl | 1.91 µM | 4.49 µM | – | – | 5.51 µM | 27 µM | 3.65 µM | 29.5 µM | 2.27 µM | 7.58 µM | 2.62 µM | 9.84 µM | 4.21 µM | 35.9 µM | 4.31 µM | > 100 µM | 2.99 µM | > 100 µM | 3.77 µM | > 100 µM
Nc1ncnc2c1nc(-c1ccccc1)n2C1OC(CO)C(O)C1O (stereo not drawn) | – | > 100 µM | – | > 100 µM | – | > 100 µM | – | > 100 µM | – | – | – | > 100 µM | – | > 100 µM | – | > 100 µM | – | > 100 µM | – | > 100 µM
CN1CCC[C@@H]1CCO[C@](C)(c1ccccc1)c1ccc(Cl)cc1 | 5.88 µM | 19.7 µM | 10.9 µM | 25.2 µM | 3.41 µM | 13.7 µM | 4.16 µM | 18.1 µM | 1.79 µM | 4.85 µM | 7.55 µM | 21.7 µM | 9 µM | 21.5 µM | 4.46 µM | 17.8 µM | 4.54 µM | 18.7 µM | 8.42 µM | 22.2 µM
O=C(Nc1n[nH]c2nc(-c3ccco3)ccc12)C1CC1 | > 25 µM | > 25 µM | > 25 µM | > 25 µM | > 25 µM | > 25 µM | > 25 µM | > 25 µM | > 25 µM | > 25 µM | > 25 µM | > 25 µM | > 25 µM | > 25 µM | > 25 µM | > 25 µM | > 25 µM | > 25 µM | > 25 µM | > 25 µM
O=C1N=C(c2ccccc2)OC1C(=O)c1ccccc1 (stereo not drawn) | – | > 100 µM | – | > 100 µM | – | > 100 µM | – | > 100 µM | – | – | – | > 100 µM | – | > 100 µM | – | > 100 µM | – | > 100 µM | – | > 100 µM
O=C(O)c1ccc2c(c1Nc1ccccc1)C(=O)c1ccccc1C2=O | 39.4 µM | > 100 µM | 19.9 µM | > 100 µM | – | – | 16.2 µM | > 100 µM | 54.6 µM | > 100 µM | 52.3 µM | > 100 µM | 34.6 µM | > 100 µM | 34.2 µM | > 100 µM | 50.3 µM | > 100 µM | 49.3 µM | > 100 µM
O=C1OCc2c1cc(F)cc2[N+](=O)[O-] | > 100 µM | > 100 µM | – | – | > 100 µM | > 100 µM | > 100 µM | > 100 µM | 26.8 µM | 69.6 µM | > 100 µM | > 100 µM | > 100 µM | > 100 µM | > 100 µM | > 100 µM | > 100 µM | > 100 µM | > 100 µM | > 100 µM
O=C(Nc1ccccc1)Nc1cccc(-n2cc(-c3ccncc3)c(-c3ccc(O)c(Cl)c3)n2)c1 | 3.24 µM | 11.7 µM | – | – | 3.19 µM | 9.79 µM | 6.06 µM | 41.4 µM | 2.25 µM | 6.02 µM | 6.49 µM | 82.6 µM | 5.73 µM | 68.8 µM | 6.02 µM | 40.7 µM | 4.13 µM | > 100 µM | 6.27 µM | > 100 µM
CCOC(=O)c1c(-c2ccccc2)[n+](=O)c2ccc(Cl)cc2n1[O-] | 6.98 µM | 19.9 µM | 2.4 µM | 8.32 µM | – | – | 3.93 µM | 16.5 µM | – | – | 5.27 µM | 18.1 µM | 4.28 µM | 32.2 µM | 15.5 µM | > 100 µM | 3.38 µM | 13.1 µM | 10.4 µM | > 100 µM
O=C(O)CC(Nc1ccccc1)C(=O)O (stereo not drawn) | – | > 100 µM | – | > 100 µM | – | – | – | > 100 µM | – | > 100 µM | – | > 100 µM | – | > 100 µM | – | > 100 µM | – | > 100 µM | – | > 100 µM
C#CCN=C(N/N=C/c1ccc([N+](=O)[O-])o1)NS(=O)(=O)c1cc(C)c(Cl)cc1SCC(N)=O | 19.4 µM | 36.5 µM | 17.8 µM | 32.2 µM | – | – | 13.9 µM | 27.2 µM | 13.6 µM | 27.7 µM | 94.3 µM | > 100 µM | 15 µM | 35.8 µM | 49.2 µM | > 100 µM | 15.5 µM | 29.4 µM | 50.6 µM | > 100 µM
COc1ccc(/C=C2\CN(Cc3cn(CCCNc4ccnc5cc(Cl)ccc45)nn3)C/C(=C\c3ccc(OC)c(OC)c3)C2=O)cc1OC | 1.95 µM | 4.39 µM | – | – | 1.41 µM | 2.9 µM | 1.05 µM | 2.41 µM | 1.75 µM | 3.54 µM | > 100 µM | > 100 µM | 0.743 µM | 3.09 µM | 2.45 µM | 11.1 µM | 1.33 µM | 3.12 µM | 1.85 µM | 7.62 µM
CCOC(=O)/C(=C/c1ccc([N+](=O)[O-])cc1)C(=O)c1ccccc1 | 1.82 µM | 3.45 µM | 4.88 µM | 17.4 µM | 1.87 µM | 3.43 µM | 2.53 µM | 7.4 µM | – | – | 3.43 µM | 19.8 µM | 2.83 µM | 10.7 µM | 11.5 µM | 23.6 µM | 1.76 µM | 3.76 µM | 2.4 µM | 5.81 µM
Cc1cc(C)c(O)c(Cc2cccc(Cc3cc(C)cc(C)c3O)c2O)c1 | – | > 100 µM | – | > 100 µM | – | – | – | > 100 µM | – | > 100 µM | – | > 100 µM | – | > 100 µM | – | > 100 µM | – | > 100 µM | – | > 100 µM
NC(CNO)C(=O)O (stereo not drawn) | – | > 100 µM | – | > 100 µM | – | – | – | > 100 µM | – | > 100 µM | – | > 100 µM | – | > 100 µM | – | > 100 µM | – | > 100 µM | – | > 100 µM

Source: PubChem BioAssay (NCI)
